Results from publication PMC4891694, “Insights into the role of sulfated glycans in cancer cell adhesion and migration through use of branched peptide probe” (Scientific Reports, 2016).

Key:
[1] = tested on: breast cancer in mice; details: orthotopic breast cancer, versus unconjugated paclitaxel; cited from earlier work
[2] = tested on: NT4 binding to PgsA-745 cells; assay: Flow cytometry, inhibition of NT4 binding to PgsA-745 cells by heparin; format: cell-based, Chinese hamster; details: 1 μM biotinylated NT4, 100 μg/ml heparin
Procedure: PANC-1 human pancreas adenocarcinoma, CHO-K1 Chinese hamster ovary cell and PgsA-745 Chinese hamster ovary cell mutant deficient in xylosyltransferase (UDP-D-xylose: serine-1,3-D-xylosyltransferase) were grown in DMEM Medium (for PANC-1 and CHO-K1) and F12 K Medium supplemented with 10% fetal bovine serum, 200 μg/ml glutamine, 100 μg/ml streptomycin and 60 μg/ml penicillin. Cell lines were purchased from ATCC (The Global Bioresource Center).
All experiments were performed using 1 × 10^5 PANC-1, CHO-K1 or PgsA-745 cells in 96-well U-bottom plates. […] Cells were finally incubated with 1 μg/ml Streptavidin-FITC. All dilutions were performed in PBS, containing 5 mM EDTA and 0.5% BSA.
10000 events were analyzed in a BD FACS Calibur (Becton Dickinson, NJ USA). Results were analyzed by FCS Express 4 Plus software.

[3] = tested on: NT4 binding to membrane receptors on PANC-1 cells; assay: Flow cytometry, inhibition of NT4 binding to PANC-1 cells by GAGs; format: cell-based, human; details: 1 μM biotinylated NT4, 100 μg/ml GAGs, PBS with 5 mM EDTA and 0.5% BSA, Streptavidin-FITC
[4] = tested on: NT4 binding to endocytic receptors; parameters: method as in PMID 23713525; details: cited from earlier work
[5] = tested on: cancer cell lines and human cancer surgical samples; parameters: method as in 2 sources, one per row (each row's own in cited_ref): ref 1-6 = [1]; PMID 17766836; doi:10.1158/1535-7163.MCT-07-0164; Falciani C. et al. Synthesis and biological activity of stable branched neurotensin peptides for tumor targeting . Mol. Cancer Ther. 6 , 2441 − 2448 ( 2007 ). 17766836 10.1158/1535-7163.MCT-07-0164 || [2]; PMID 20222099; doi:10.1002/cmdc.200900527; Falciani C. et al. Design and in vitro evaluation of branched peptide conjugates: turning nonspecific cytotoxic drugs into tumor-selective agents . ChemMedChem. 5 , 567 − 574 ( 2010 ). 20222099 10.100 || [3]; PMID 20578987; doi:10.2174/156800910793605875; Falciani C. et al. Modular branched neurotensin peptides for tumor target tracing and receptor-mediated therapy: a proof-of-concept . Curr. Cancer Drug Targets. 10 , 695 − 704 ( 2010 ). 20578987 10.21 || [4]; PMID 21370475; doi:10.1002/cmdc.201000463; Falciani C. et al. Target-selective drug delivery through liposomes labeled with oligobranched neurotensin peptides . ChemMedChem. 6 , 678 − 685 ( 2011 ). 21370475 10.1002/cmdc.201000463 || [5]; PMID 25984525; doi:10.1155/2015/173507; Brunetti J. et al. Neurotensin branched Peptide as a tumor-targeting agent for human bladder cancer . Biomed Res Int. 2015 , 173507 , doi: 10.1155/2015/173507 ( 2015 ). 25984525 PMC4423026 ||| ref 7 = [7]; PMID 23713525; doi:10.1021/jm400329p; Falciani C. et al. Cancer selectivity of tetrabranched neurotensin peptides is generated by simultaneous binding to sulfated glycosaminoglycans and protein receptors . J Med Chem. 56 , 5009 – 18 ( 201); details: compared with NT4; cited from earlier work

In the case of `CC(=O)O[C@H]1C(=O)[C@@]2(C)[C@H]([C@H](OC(=O)c3ccccc3)[C@]3(O)C[C@H](OC(=O)[C@H](O)[C@@H](NC(=O)c4ccccc4)c4ccccc4)C(C)=C1C3(C)C)[C@]1(OC(C)=O)CO[C@@H]1C[C@@H]2O` [unconjugated paclitaxel, paclitaxel], the tumor regression [1] is given as “not achieved with unconjugated paclitaxel”.

In the case of heparin, the “inhibition of NT4 binding to PgsA-745 cells” value [2] is listed as “still completely inhibited by heparin”, the “inhibition of NT4 binding (in words)” value [3] is listed as “complete inhibition” and the “inhibition of NT4 binding to endocytic receptors” value [4] is listed as “completely inhibited by heparin”.

In the case of hyaluronic acid, the “inhibition of NT4 binding (in words)” value [3] is reported as “neither binding to NT4 or inhibition of NT4 binding to cancer cell membranes was detected”.

In the case of “native neurotensin: monomeric native neurotensin”, the high cancer selectivity [5] is given as “not shared by monomeric native neurotensin”.
